Test results as given in patent publication US20250206758A1, “SUBSTITUTED BRIDGED RING INHIBITOR, PREPARATION METHOD THEREFOR AND APPLICATION THEREOF” (SUZHOU ZELGEN BIOPHARMACEUTICALS CO., LTD., priority 2022, published 2025).
Structures can show the parent of a compound that is named as a salt. Where two headings read alike, the source gives them in different places.

How the values were obtained:
GP2D = assay: Cell proliferation inhibition, GP2D (CellTiter-Glo 3D, 7 days); type: cell-based
Protocol: (§1) • (a) Resuscitating cells in T75 cell culture flask: • (b) When the cell confluence reaches 80-90%, subculturing the cells.
(§2) The diluted test compound was added to a 384-well cell culture plate with a nanoliter pipetting system, and duplicate wells were set up. An equal volume of culture medium was added to the positive control group; and an equal volume of DMSO was added to the negative control group, then centrifugation was conducted at 1000 rpm for 1 min at room temperature.
(§3) Cells were inoculated into a) 384-well culture plate, with an equal volume of cells added to the negative control group, and only an equal volume of culture medium added to the positive control group. The plate was centrifuged at 1000 rpm for 1 min at room temperature, and the final DMSO concentration of the compound was 0.5% at last. The plate was placed in a 37° C., 5% CO2 constant temperature incubator for 7 days.
(§4) 20 μL/well of CellTiter-Glo® 3D to b) was added to 384-well cell culture plate, and the plate was shook at 320 rpm for 20 min in the dark, and incubated at room temperature in the dark for 2 hrs.
(§5) The luminescence value was read using an Envision multi-functional microplate reader.
(§6) The inhibition rate (IR) of the test compound was calculated using the following formula: IR (%)=(1−(RLU compound−RLU blank control)/(RLU meidum control−RLU blank control))*100%. The inhibition rates of different concentrations of compounds were calculated in Excel, and then the inhibition curves were plotted and the related parameters (including the minimum inhibition rate, maximum inhibition rate and IC50) were calculated using GraphPad Prism software.

AsPC-1 = assay: Cell proliferation inhibition, AsPC-1 (CellTiter-Glo 3D, 7 days); type: cell-based; settings: AsPC-1, 7 days
Protocol: as §1, §2, §3, §4, §5, §6

IC50 (AsPC-1) [nM]	Compound	IC50 (GP2D; 168 h) [nM]	IC50 (AsPC-1; Homo sapiens, ASPC1, 168 h) [nM]	IC50 (GP2D) [nM]
–	N#Cc1cc(N)cc(-c2ncc3c(N4C[C@H]5CC[C@@H](C4)N5)nc(OC[C@@]45CCCN4C[C@@]4(CC4(F)F)C5)nc3c2F)c1C(F)(F)F [Example 43, 3-(4-((1R,5S)-3,8-diazabicyclo[3.2.1]octan-3-yl)-2-(((1S,7a'S)-2,2-difluorodihydro-1′H,3′H-spiro[cyclopropan-1,2′-pyrrolizin]-7a′(5′H)-yl)methoxy)-8-fluoropyridino[4,3-d]pyrimidin-7-yl)-5-amino-2-(trifluoromethyl)benzonitrile]	4.17	115	–
–	C#Cc1c(F)ccc2cc(O)cc(-c3ncc4c(N5C[C@H]6CC[C@@H](C5)N6)nc(OC[C@]56C[C@@H](F)CN5CC5(CC5)C6)nc4c3F)c12 [Example 10A, 4-(4-((1R,5S)-3,8-diazabicyclo[3.2.1]octan-3-yl)-8-fluoro-2-(((6′R,7a'S)-6′-fluorodihydro-1′H,3′H-spiro[cyclopropan-1,2′-pyrrolizin]-7a′(5′H)-yl)methoxy)pyridino[4,3-d]pyrimidin-7-yl)-5-ethynyl-6-fluoronaphthalen-2-ol]	1.07	23.5	–
–	C#Cc1c(F)ccc2cc(O)cc(-c3ncc4c(N5CC6CCC(C5)N6)nc(OCC56CC(F)(F)CCN5CC5(CC5)C6)nc4c3F)c12 [Example 13, 4-(4-((1R,5S)-3,8-diazabicyclo[3.2.1]octan-3-yl)-2-((7′,7′-difluorotetrahydro-3′-H-spiro[cyclopropan-1,2′-pyrrolizin]-8a′(1′H)-yl)methoxy)-8-fluoropyridino[4,3d]pyrimidin-7-yl)-5-ethynyl-6-fluoronaphthalen-2-ol trifluoroacetate]	42.8	210	–
–	C#Cc1c(F)ccc2cc(O)cc(-c3ncc4c(N5C[C@H]6CC[C@@H](C5)N6)nc(OC[C@]56C[C@@H](F)CN5C[C@@]5(CC5(F)F)C6)nc4c3F)c12 [Example 15A, 4-(4-((1R,5S)-3,8-diazabicyclo[3.2.1]octan-3-yl)-8-fluoro-2-(((1S,6′R,7a'S)-2,2,6′-trifluorodihydro-1′H,3′H-spiro[cyclopropan-1,2′-pyrrolizin]-7a′(5′H)-yl)methoxy)pyridino[4,3-d]pyrimidin-7-yl)-5-ethynyl-6-fluoronaphthalen-2-ol]	13.1	108	–
–	C#Cc1c(F)ccc2cc(O)cc(-c3ncc4c(N5C[C@H]6CC[C@@H](C5)N6)nc(OC[C@]56CCCN5C[C@]5(CC5(F)F)C6)nc4c3F)c12 [Example 16B-2, 4-(4-((1R,5S)-3,8-diazabicyclo[3.2.1]octan-3-yl)-2-(((1R,7a′R)-2,2-difluorodihydro-1′H,3′H-spiro[cyclopropan-1,2′-pyrrolizin]-7a′(5′H)-yl)methoxy)-8-fluoropyridino[4,3-d]pyrimidin-7-yl)-5-ethynyl-6-fluoronaphthalen-2-ol]	1.55	9.22	–
–	C#Cc1c(F)ccc2cc(O)cc(-c3ncc4c(N5C[C@H]6CC[C@@H](C5)N6)nc(OC[C@]56C[C@H](F)CN5C[C@@]5(CC5(F)F)C6)nc4c3F)c12 [Example 15E, 4-(4-((1R,5S)-3,8-diazabicyclo[3.2.1]octan-3-yl)-8-fluoro-2-(((1S,6'S,7a'S)-2,2,6′-trifluorodihydro-1′H,3′H-spiro[cyclopropan-1,2′-pyrrolizin]-7a′(5′H)-yl)methoxy)pyridino[4,3-d]pyrimidin-7-yl)-5-ethynyl-6-fluoronaphthalen-2-ol]	32.2	314	–
–	Cc1nc(N)cc(-c2ncc3c(N4C[C@H]5CC[C@@H](C4)N5)nc(OC[C@@]45CCCN4C[C@@]4(CC4(F)F)C5)nc3c2F)c1C(F)(F)F [Example 55, 4-(4-((1R,5S)-3,8-diazabicyclo[3.2.1]octan-3-yl)-2-(((1S,7a'S)-2,2-difluorodihydro-1′H,3′H-spiro[cyclopropan-1,2′-pyrrolizin]-7a′(5′H)-yl)methoxy)-8-fluoropyridino[4,3-d]pyrimidin-7-yl)-6-methyl-5-(trifluoromethyl)pyridin-2-amine]	6.5	56.7	–
–	Nc1c(Cl)cc(Cl)c(F)c1-c1ncc2c(N3C[C@H]4CC[C@@H](C3)N4)nc(OC[C@@]34CCCN3C[C@@]3(CC3(F)F)C4)nc2c1F [Example 25, 2-(4-((1R,5S)-3,8-diazabicyclo[3.2.1]octan-3-yl)-2-(((1S,7a'S)-2,2-difluorodihydro-1′H,3′H-spiro[cyclopropan-1,2′-pyrrolizin]-7a′(5′H)-yl)methoxy)-8-fluoropyridino[4,3-d]pyrimidin-7-yl)-4,6-dichloro-3-fluoroaniline]	> 100	> 1000	–
4.11	C#Cc1c(F)ccc2cc(O)cc(-c3ncc4c(N5C[C@H]6CC[C@@](C)(C5)N6)nc(OC[C@@]56CCCN5C[C@@]5(CC5(F)F)C6)nc4c3F)c12 [Example 20A, 4-(2-(((1S,7a'S)-2,2-difluorodihydro-1′H,3′H-spiro[cyclopropan-1,2′-pyrrolizin]-7a′(5′H)-yl)methoxy)-8-fluoro-4-((1S,5R)-1-methyl-3,8-diazabicyclo[3.2.1]octan-3-yl)pyridino[4,3-d]pyrimidin-7-yl)-5-ethynyl-6-fluoronaphthol-2-ol]	–	–	0.44
–	N#Cc1c(Cl)cc(N)cc1-c1ncc2c(N3C[C@H]4CC[C@@H](C3)N4)nc(OC[C@@]34CCCN3C[C@@]3(CC3(F)F)C4)nc2c1F [Example 49, 2-(4-((1R,5S)-3,8-diazabicyclo[3.2.1]octan-3-yl)-2-(((1S,7a'S)-2,2-difluorodihydro-1′H,3′H-spiro[cyclopropan-1,2′-pyrrolizin]-7a′(5′H)-yl)methoxy)-8-fluoropyridino[4,3-d]pyrimidin-7-yl)-4-amino-6-chlorobenzonitrile]	24.4	> 1000	–
–	Nc1cc(-c2ncc3c(N4C[C@H]5CC[C@@H](C4)N5)nc(OC[C@@]45CCCN4C[C@@]4(CC4(F)F)C5)nc3c2F)c(Cl)c(C(F)(F)F)c1 [Example 45, 3-(4-((1R,5S)-3,8-diazabicyclo[3.2.1]octan-3-yl)-2-(((1S,7a'S)-2,2-difluorodihydro-1′H,3′H-spiro[cyclopropan-1,2′-pyrrolizin]-7a′(5′H)-yl)methoxy)-8-fluoropyridino[4,3-d]pyrimidin-7-yl)-4-chloro-5-(trifluoromethyl)aniline]	60	896	–
–	N#Cc1cc(N)cc(-c2ncc3c(N4C[C@H]5CC[C@@H](C4)N5)nc(OC[C@@]45CCCN4C[C@@]4(CC4(F)F)C5)nc3c2F)c1Cl [Example 48, 3-(4-((1R,5S)-3,8-diazabicyclo[3.2.1]octan-3-yl)-2-(((1S,7a'S)-2,2-difluorodihydro-1′H,3′H-spiro[cyclopropan-1,2′-pyrrolizin]-7a′(5′H)-yl)methoxy)-8-fluoropyridino[4,3-d]pyrimidin-7-yl)-5-amino-2-chlorobenzonitrile]	66	779	–
–	C#Cc1c(F)ccc2cc(O)cc(-c3ncc4c(N5C[C@H]6CC[C@@H](C5)N6)nc(OC[C@]56C[C@@H](F)CN5C[C@]5(CC5(F)F)C6)nc4c3F)c12 [Example 15B, 4-(4-((1R,5S)-3,8-diazabicyclo[3.2.1]octan-3-yl)-8-fluoro-2-(((1R,6′R,7a'S)-2,2,6′-trifluorodihydro-1′H,3′H-spiro[cyclopropan-1,2′-pyrrolizin]-7a′(5′H)-yl)methoxy)pyridino[4,3-d]pyrimidin-7-yl)-5-ethynyl-6-fluoronaphthalen-2-ol]	7.35	50.8	–
–	C#Cc1c(F)ccc2cc(O)cc(-c3ncc4c(N5C[C@H]6CC[C@@H](C5)N6)nc(OC[C@]56C[C@H](F)CN5C[C@]5(CC5(F)F)C6)nc4c3F)c12 [Example 15F, 4-(4-((1R,5S)-3,8-diazabicyclo[3.2.1]octan-3-yl)-8-fluoro-2-(((1R,6'S,7a'S)-2,2,6′-trifluorodihydro-1′H,3′H-spiro[cyclopropan-1,2′-pyrrolizin]-7a′(5′H)-yl)methoxy)pyridino[4,3-d]pyrimidin-7-yl)-5-ethynyl-6-fluoronaphthalen-2-ol]	> 100	> 1000	–
–	Nc1cc(Cl)c(F)c(-c2ncc3c(N4C[C@H]5CC[C@@H](C4)N5)nc(OC[C@@]45CCCN4C[C@@]4(CC4(F)F)C5)nc3c2F)c1 [Example 46, 3-(4-((1R,5S)-3,8-diazabicyclo[3.2.1]octan-3-yl)-2-(((1S,7a'S)-2,2-difluorodihydro-1′H,3′H-spiro[cyclopropan-1,2′-pyrrolizin]-7a′(5′H)-yl)methoxy)-8-fluoropyridino[4,3-d]pyrimidin-7-yl)-5-chloro-4-fluoroaniline]	> 100	> 1000	–
–	C#Cc1c(F)ccc2cc(O)cc(-c3ncc4c(N5CC6CCC(C5)N6)nc(OCC56CCCN5C5(CC5)CC6)nc4c3F)c12 [Example 11, 4-(4-((1R,5S)-3,8-diazabicyclo[3.2.1]octan-3-yl)-8-fluoro-2-((tetrahydrospiro[cyclopropan-1,3′-pyrrolizin]-7a′(5′H)-yl)methoxy)pyridino[4,3d]pyrimidin-7-yl)-5-ethynyl-6-fluoronaphthalen-2-ol]	3.01	38.2	–
